Measured values reported in ChEMBL document CHEMBL1131804, “Synthesis of delta4-beta-D-glucopyranosiduronic acids as mimetics of 2,3-unsaturated sialic acids for sialidase inhibition” (Bioorg Med Chem Lett, 1999).

Key:
Crassostrea virginica = assay: Inhibitory activity against KDN-sialidase from Crassostrea virginica at a concentration of 1 mM
Clostridium perfringens = assay: Inhibitory activity against sialidase from Clostridium perfringens at a concentration of 0.1 mM
influenza virus a = assay: Inhibitory activity against influenza virus A(N9) sialidase at a concentration of 0.1 mM
[1] = Inhibitory activity against influenza virus A(N9) sialidase
[2] = test system: Salmonella enterica subsp. enterica serovar Typhimurium; assay: Inhibitory activity sialidase from Salmonella Typhimurium at a concentration of 0.1 mM
[3] = Inhibitory activity against Vibrio cholerae sialidase
Vibrio cholerae = assay: Inhibitory activity against Vibrio cholerae sialidase at a concentration of 0.1 mM

Structure (SMILES) | inhibition (Crassostrea virginica) | inhibition (Clostridium perfringens) | inhibition (influenza virus a) | Ki [1] | inhibition [2] | Ki [3] | inhibition (Vibrio cholerae)
CC(C)OC1OC(C(=O)O)=CC(O)C1O (stereo unspecified) | 6% |  |  |  |  |  | 
CC(=O)NC1C(O)C=C(C(=O)O)OC1OC(C)C (stereo unspecified) |  | 24% | 100% | 2.7 µM | 24% | 120 µM | 25%
O=C(O)C1=CC(O)C(O)C([C@H](O)[C@H](O)CO)O1 (stereo partly specified) | 95% |  |  |  |  |  | 
CC(=O)N[C@H]1[C@H]([C@H](O)[C@H](O)CO)OC(C(=O)O)=C[C@@H]1O [NEU5AC2EN] | 20% |  |  | 1.3 µM |  | 3.4 µM | 
